Test results: patent US8541449B2, “Substituted isoquinolines and isoquinolinones as Rho kinase inhibitors” (Sanofi, priority 2008, dated 2013)

Legend:
Format in all cases: biochemical
recombinant human PKA = target: T1, recombinant human PKA (Homo sapiens, UniProt P17612); assay: Determination of Protein Kinase A inhibition (Caliper peptide phosphorylation assay); conditions: recombinant human PKA versus ROCK II
T1 construct: Active recombinant human PKA (residues 1-351, N-terminal His-tag); His-tag (N); purchased Invitrogen, Karlsruhe, Germany
Procedure: (§1) Determination of Protein Kinase A and Protein Kinase G Inhibition
(§2) To measure PKA and PKG1-beta inhibition, IC50 values were determined according to the following protocol:
(§3) Active recombinant human PKG1-beta (full-length, with N-terminal His-tag) was purchased from Millipore GmbH, Schwalbach, Germany. Active recombinant human PKA (residues 1-351, N-terminal His-tag) was obtained from Invitrogen, Karlsruhe, Germany. The peptide substrate, Fluorescein-[…]-COOH, was obtained from JPT Peptide Technologies, Berlin, Germany. Adenosine-5′-triphosphate (ATP), bovine serum albumine (BSA), dimethylsulphoxide (DMSO), 4-(2-Hydroxyethyl)piperazine-1-ethanesulfonic acid (Hepes), Brij-35, dithiothreitol (DTT) and Pluronic F-68 were purchased from Sigma-Aldrich, Munich, Germany. Tris(hydroxymethyl)-aminomethane (Tris), magnesium chloride, NaOH, 1M HCl and EDTA were obtained from Merck Biosciences, Darmstadt, Germany. “Complete” protease inhibitor was from Roche Diagnostics, Mannheim, Germany.
(§4) Test compounds were diluted to the appropriate concentrations in buffer 1 (25 mM Tris-HCl, pH 7.4, 5 mM MgCl2, 2 mM DTT, 0.02% (w/v) BSA, 0.01% Pluronic F-68 and 3% DMSO). PKG1-beta and PKA were diluted to concentrations of 150 ng/ml and 30 ng/ml, respectively, in buffer 2. The peptide substrate and ATP were diluted to concentrations of 3 μM and 120 μM, respectively, in the buffer 2. Two μl of the compound solution were mixed with 2 μl of the diluted enzyme in a 384-well small volume microtiter plate (Greiner, Bio-One, Frickenhausen, Germany), and the kinase reaction was initiated by addition of 2 μl of the solution containing peptide substrate and ATP. After 60 min incubation at 32° C., the reaction was stopped by addition of 20 μl of a solution containing 100 mM Hepes-NaOH, pH 7.4, 0.015% (v/v) Brij-35, 45 mM EDTA and 0.227% chip coating reagent 1 (Caliper Lifescience Inc, Hopkinton, Mass.). Phosphorylation of the substrate peptide was then detected on a Caliper 3000 instrument essentially as described by Pommereau et al (J. Biomol. Screening 9(5), 409-416, 2004). Separation conditions were as follows: Pressure −1.3 psi, upstream voltage −1562 V, downstream voltage −500 V, sample sip time 200 ms. Positive controls (buffer 1 instead of compound) and negative controls (buffer 1 instead of compound and buffer 2 instead of kinase solution) were run in parallel on each plate. The following products/compounds were tested in said assay by using the respective form (salt or free base) obtained as in the examples described above and the following activities were measured.

[1] = target: T2, human recombinant ROCK II (Homo sapiens, UniProt O75116); assay: Determination of Rho kinase inhibition (Caliper peptide phosphorylation assay); conditions: 60 min at 32° C., negative decadal logarithm of the IC50
T2 construct: N-terminal His6-tagged recombinant human ROCK-II residues 11-552; His6 (N); purchased Millipore GmbH, Schwalbach, Germany
Procedure: Determination of Rho Kinase Inhibition
To measure Rho-kinase inhibition, IC50 values were determined according to the following protocol:
Active human recombinant ROCK II (N-terminal His6-tagged recombinant human ROCK-II residues 11-552) was purchased from Millipore GmbH, Schwalbach, Germany. The peptide substrate, Fluorescein-[…]-COOH, was obtained from JPT Peptide Technologies, Berlin, Germany. Adenosine-5′-triphosphate (ATP), bovine serum albumine (BSA), dimethylsulphoxide (DMSO), 4-(2-Hydroxyethyl)piperazine-1-ethanesulfonic acid (Hepes), Brij-35, dithiothreitol (DTT) and Pluronic F-68 were purchased from Sigma-Aldrich, Munich, Germany. Tris(hydroxymethyl)-aminomethane (Tris), magnesium chloride, NaOH, 1M HCl and EDTA were obtained from Merck Biosciences, Darmstadt, Germany. “Complete” protease inhibitor was from Roche Diagnostics, Mannheim, Germany.
Test compounds were diluted to the appropriate concentrations in buffer 1 (25 mM Tris-HCl, pH 7.4, 5 mM MgCl2, 2 mM DTT, 0.02% (w/v) BSA, 0.01% Pluronic F-68 and 3% DMSO). The ROCK II enzyme was diluted to a concentration of 100 ng/mL in buffer 2 (25 mM Tris-HCl, pH 7.4, 5 mM MgCl2, 2 mM DTT and 0.02% (w/v) BSA). The peptide substrate and ATP were diluted to concentrations of 3 μM and 120 μM, respectively, in the buffer 2. Two μl of the compound solution were mixed with 2 μl of the diluted enzyme in a 384-well small volume microtiter plate (Greiner, Bio-One, Frickenhausen, Germany), and the kinase reaction was initiated by addition of 2 μl of the solution containing peptide substrate and ATP. After 60 min incubation at 32° C., the reaction was stopped by addition of 20 μl of a solution containing 100 mM Hepes-NaOH, pH 7.4, 0.015% (v/v) Brij-35, 45 mM EDTA and 0.227% chip coating reagent 1 (Caliper Lifescience Inc, Hopkinton, Mass.). Phosphorylation of the substrate peptide was then detected on a Caliper 3000 instrument essentially as described by Pommereau et al (J. Biomol. Screening 9(5), 409-416, 2004). Separation conditions were as follows: Pressure −1.3 psi, upstream voltage −1562 V, downstream voltage −500 V, sample sip time 200 ms. Positive controls (buffer 1 instead of compound) and negative controls (buffer 1 instead of compound and buffer 2 instead of ROCK II) were run in parallel on each plate.
The following products/compounds were tested in said assay by using the respective form (salt or free base) obtained as in the examples described above and the following activities were measured

[2] = target: T3, recombinant human PKG1-beta (Homo sapiens, UniProt Q13976); assay: Determination of Protein Kinase G inhibition (Caliper peptide phosphorylation assay); conditions: recombinant human PKG1-beta versus ROCK II
T3 construct: Active recombinant human PKG1-beta (full-length, with N-terminal His-tag); His-tag (N); purchased Millipore GmbH, Schwalbach, Germany
T3 sequence (Q13976 1-686 isoform Q13976-2): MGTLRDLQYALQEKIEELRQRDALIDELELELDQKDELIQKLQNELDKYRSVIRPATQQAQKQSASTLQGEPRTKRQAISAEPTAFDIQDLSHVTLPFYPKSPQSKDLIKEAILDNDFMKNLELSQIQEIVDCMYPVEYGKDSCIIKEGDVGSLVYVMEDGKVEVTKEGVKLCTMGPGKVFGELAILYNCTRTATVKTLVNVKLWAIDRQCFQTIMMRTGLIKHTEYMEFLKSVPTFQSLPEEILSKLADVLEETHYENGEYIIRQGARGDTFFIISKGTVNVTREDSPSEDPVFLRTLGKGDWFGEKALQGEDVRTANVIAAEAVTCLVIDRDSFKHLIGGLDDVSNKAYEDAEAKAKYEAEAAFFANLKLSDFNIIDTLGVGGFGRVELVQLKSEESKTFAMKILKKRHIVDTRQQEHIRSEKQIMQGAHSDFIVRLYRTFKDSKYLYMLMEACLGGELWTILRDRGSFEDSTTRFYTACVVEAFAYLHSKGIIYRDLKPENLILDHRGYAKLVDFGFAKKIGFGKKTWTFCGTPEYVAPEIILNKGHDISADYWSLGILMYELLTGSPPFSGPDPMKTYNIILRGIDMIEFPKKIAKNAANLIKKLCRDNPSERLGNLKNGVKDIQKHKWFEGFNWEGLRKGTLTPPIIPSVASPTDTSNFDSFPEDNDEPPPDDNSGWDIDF
Procedure: as §1, §2, §3, §4

T2 sequence (O75116 11-552): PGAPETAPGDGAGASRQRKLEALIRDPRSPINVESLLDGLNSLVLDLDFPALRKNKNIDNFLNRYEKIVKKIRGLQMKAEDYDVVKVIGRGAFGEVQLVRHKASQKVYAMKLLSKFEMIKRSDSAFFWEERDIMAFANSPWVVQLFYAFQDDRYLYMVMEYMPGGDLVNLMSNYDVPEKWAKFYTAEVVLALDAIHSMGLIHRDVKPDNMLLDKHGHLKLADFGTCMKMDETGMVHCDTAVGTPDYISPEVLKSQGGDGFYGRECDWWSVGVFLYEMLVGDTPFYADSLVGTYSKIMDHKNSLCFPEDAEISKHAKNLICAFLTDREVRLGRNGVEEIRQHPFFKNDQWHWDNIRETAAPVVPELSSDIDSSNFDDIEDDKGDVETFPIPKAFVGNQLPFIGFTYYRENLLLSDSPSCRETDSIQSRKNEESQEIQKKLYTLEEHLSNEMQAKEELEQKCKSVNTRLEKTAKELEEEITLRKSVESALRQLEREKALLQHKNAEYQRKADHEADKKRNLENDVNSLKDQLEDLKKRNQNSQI

| Selectivity against PKA (recombinant human PKA) | pIC50 [1] | Selectivity against PKG [2] | IC50 [1] [nM] | Compound |
| --- | --- | --- | --- | --- |
| >1000 | +++++++ (8.0≦pIC50) | >1000 | – | NC(CF)[C@]1(c2ccc(F)cc2)CC[C@H](Oc2cc3cc[nH]c(=O)c3cc2Cl)CC1 (stereo partly drawn) [Example 114, cis-6-[4-(1-Amino-2-fluoro-ethyl)-4-(4-fluoro-phenyl)-cyclohexyloxy]-7-chloro-2H-isoquinolin-1-one] |
| >1000 | +++++++ (8.0≦pIC50) | >300 | – | CCC(N)[C@]1(c2ccccc2OC)CC[C@H](Oc2cc3cc[nH]c(=O)c3cc2Cl)CC1 (stereo partly drawn) [Example 69, cis-6-[4-(1-Amino-propyl)-4-(2-methoxy-phenyl)-cyclohexyloxy]-7-chloro-2H isoquinolin-1-one] |
| >1000 | +++++++ (8.0≦pIC50) | >300 | – | CCC(N)[C@]1(c2ccc(Br)cc2)CC[C@H](Oc2cc3cc[nH]c(=O)c3cc2Cl)CC1 (stereo partly drawn) [Example 6, cis-6-[4-(1-Amin-propyl)-4-(4-bromo-phenyl)-cyclohexyloxy]-7-chloro-2H-isoquinolin-1-one] |
| >1000 | +++++++ (8.0≦pIC50) | >300 | – | CCOc1cccc([C@]2(C(N)CC)CC[C@@H](Oc3cc4cc[nH]c(=O)c4cc3Cl)CC2)c1 (stereo partly drawn) [Example 63, cis-6-[4-(1-Amino-propyl)-4-(3-ethoxy-phenyl)-cyclohexyloxy]-7-chloro-2H-isoquinolin-1-one] |
| >300 | ++++++ (7.0≦pIC50<8.0) | >10 | – | CCC(N)C1CCC(Oc2cc3cc[nH]c(=O)c3cc2Cl)CC1 (single isomer, unassigned) [Example 130, 6-[4-(1-Amino-propyl)-cyclohexyloxy]-7-chloro-2H-isoquinolin-1-one] |
| >1000 | ++++++ (7.0≦pIC50<8.0) | >100 | – | CCC(N)[C@]1(c2ccccc2)CC[C@H](Oc2cc3cc[nH]c(=O)c3cc2F)CC1 (stereo partly drawn) [Example 87, cis-6-[4-(1-Amino-propyl)-4-phenyl-cyclohexyloxy]-7-fluoro-2H-iso quinolin-1-one] |
| >100 | +++++ (6.0≦pIC50<7.0) | >100 | – | CCCC(N)[C@]1(c2ccccc2)CC[C@@H](Oc2cc3cc[nH]c(=O)c3cc2Cl)CC1 (stereo partly drawn) [Example 14, trans-6-[4-(1-Amino-butyl)-4-phenyl-cyclohexyloxy]-7-chloro-2H-isoquinolin-1-one] |
| >1000 | +++++++ (8.0≦pIC50) | >100 | – | CC(C)(N)[C@]1(c2ccccc2)CC[C@H](Oc2cc3cc[nH]c(=O)c3cc2Cl)CC1 [Example 25, cis-6-[4-(1-Amino-1-methyl-ethyl)-4-phenyl-cyclo-hexyloxy]-7-chloro-2H-iso quinolin-1-one] |
| >100 | – | >10 | 10 to 100 | CC(N)(c1ccccc1)C1CCC(Oc2cc3cc[nH]c(=O)c3cc2Cl)CC1 (single isomer, unassigned) [Example 123, 6-{4-[1-Amino-1-phenyl-ethyl]-cyclohexyloxy}-7-chloro-2H-isoquinolin-1-one] |
| >10 | – | >10 | 100 to 1000 | NC(C1CCC(Oc2cc3cc[nH]c(=O)c3cc2Cl)CC1)C1CC1 (single isomer, unassigned) [Example 131, 6-[4-(Amino-cyclopropyl-methyl)-cyclohexyloxy]-7-chloro-2H-isoquinolin-1-one] |

| Compound | Selectivity against PKA (recombinant human PKA) | pIC50 [1] | Selectivity against PKG [2] | IC50 [1] [nM] |
| --- | --- | --- | --- | --- |
| CCC(N)[C@]1(c2ccccc2F)CC[C@H](Oc2cc3cc[nH]c(=O)c3cc2Cl)CC1 (stereo partly drawn) [Example 9, cis-6-[4-(1-Amino-propyl)-4-(2-fluoro-phenyl)-cyclohexyloxy]-7-chloro-2H-isoquinolin-1-one] | >1000 | +++++++ (8.0≦pIC50) | >100 | – |
| CCC(N)[C@]1(c2ccccc2Cl)CC[C@H](Oc2cc3cc[nH]c(=O)c3cc2Cl)CC1 (stereo partly drawn) [Example 10, cis-6-[4-(1-Amino-propyl)-4-(2-chloro-phenyl)-cyclohexyloxy]-7-chloro-2H-iso quinolin-1-one] | >100 | +++++++ (8.0≦pIC50) | >100 | – |
| NC(C1CC1)[C@]1(c2ccccc2)CC[C@H](Oc2cc3cc[nH]c(=O)c3cc2Cl)CC1 (stereo partly drawn) [Example 26] | >1000 | +++++++ (8.0≦pIC50) | >300 | – |
| CCC(N)[C@]1(c2ccccn2)CC[C@H](Oc2cc3cc[nH]c(=O)c3cc2Cl)CC1 (stereo partly drawn) [Example 55, cis-6-[4-(1-Amino-propyl)-4-pyridin-2-yl-cyclohexyloxy]-7-chloro-2H-isoquinolin-1-one] | >1000 | +++++++ (8.0≦pIC50) | >300 | – |
